Assay results published in patent US20030181353A1, “Composition & use as analgesic, anti-inflammatory, wound healing agent, for treatment of heart conditions, assessment of heart function & tissue & cell protection & healing & reperfusion, mood disorders & symptoms & sequelae of menopause & for inducing unconsciousness, sleep & anesthesia” (priority 1998, published 2003).

Test system: Intracellular Adenosine
Assay type: in vivo, rat

Nc1nc(=O)c2c([nH]1)NCC(CNc1ccc(C(=O)N[C@@H](CCC(=O)O)C(=O)O)cc1)N2C=O (mixture of isomers) [Follinic Acid (F.A.), folinic acid]
Adenosine levels in the heart, lung and brain (rat, in vivo, po): dramatic increase in adenosine levels
Effect of co-administration of folinic acid on adenosine depletion (rats, co-administered with the depleting agent): completely abrogated adenosine depletion
Effect of folinic acid administered alone on adenosine levels (rats, folinic acid alone, all organs studied): increase in adenosine levels for all organs studied
